SMILES strings stand for the structures.

This assay has as its target T1, GRK4 (Homo sapiens, UniProt P32298).
T1 construct: purchased Thermo Fisher Scientific (Life Technologies) SelectScreen
Put plainly: SelectScreen Z'LYTE. It counts as biochemical. An outline of the steps: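 NU5455 was profiled across the SelectScreen Broad panel of kinase activity and binding assays. Z'LYTE reactions such as CSF1R ran at apparent Km ATP, while the Adapta CAMK1 assay used ATP listed as 10. Values are given as percent.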

T1 sequence (P32298 whole entry): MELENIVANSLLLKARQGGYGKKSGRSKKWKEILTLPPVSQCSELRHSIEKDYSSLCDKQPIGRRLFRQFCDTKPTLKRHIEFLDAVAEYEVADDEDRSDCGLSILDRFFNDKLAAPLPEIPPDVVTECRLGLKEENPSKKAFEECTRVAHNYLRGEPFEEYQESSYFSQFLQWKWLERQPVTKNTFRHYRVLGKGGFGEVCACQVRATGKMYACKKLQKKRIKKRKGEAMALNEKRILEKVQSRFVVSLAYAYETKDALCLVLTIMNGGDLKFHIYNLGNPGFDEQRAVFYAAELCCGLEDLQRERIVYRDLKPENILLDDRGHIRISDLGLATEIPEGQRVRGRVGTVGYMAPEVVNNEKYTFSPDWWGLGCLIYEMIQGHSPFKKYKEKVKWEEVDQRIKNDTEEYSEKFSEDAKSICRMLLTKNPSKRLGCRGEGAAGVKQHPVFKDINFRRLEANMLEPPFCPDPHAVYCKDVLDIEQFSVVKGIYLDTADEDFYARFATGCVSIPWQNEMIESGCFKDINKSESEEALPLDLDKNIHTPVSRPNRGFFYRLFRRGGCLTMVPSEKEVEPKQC

One may read the inhibition as the change of the read-out against control, counted positive when it falls. In turn, `CN(C(=O)CN1CCOCC1)c1ccc2sc3c(-c4cccc5c(=O)cc(N6CC7CCC(C6)O7)oc45)cccc3c2c1` [NU5455] showed an inhibition at 1 µM of 3.5%.

(Values after paper PMC6934184, “Selective DNA-PKcs inhibition extends the therapeutic index of localized radiotherapy and chemotherapy” (The Journal of Clinical Investigation, 2019).)
